Reference: patent EP4640678A1, “NOVEL OXO-PYRIDINE COMPOUND, PREPARATION METHOD THEREFOR, AND USE THEREOF” (Chengdu Shibeikang Biomedical Technology Co., Ltd., priority 2022, dated 2024)

Key:
human plasma = experiment: determination of in-vitro anticoagulant effect in human plasma (APTT); assay type: biochemical; settings: for APTT prolongation rate (%): healthy human plasma, 37°C for 3 min; for EC150: estimated from the APTT test results in human plasma
Procedure: After centrifugation, the plasma sample was pipetted and frozen (-80°C) for later use.
A proper amount of a compound was weighed and prepared into a 10-100 mM stock solution using 100% of DMSO (the specific concentration of the stock solution was determined based on the properties of the compound); and then working solutions with various concentrations (specifically: 1 µM, 3 µM and 10 µM, respectively) were prepared from the stock solution using the healthy human plasma as a solution and thoroughly mixed. After incubation at 37°C for 3 min, the sample was placed on an instrument (model: CS-2000I) to determine APTT.
GraphPad Prism software was used for analysis to calculate the APTT prolongation rate at each concentration.

[1] = Study of pharmacokinetics in rats; assay type: in vivo; settings: rat, po; male SD rats, intragastrical gavage, 30 mg/kg, plasma
Procedure: Each group was administered via intragastrical gavage at a dose of 30 mg/kg.
About 0.5 mL of blood was collected, placed in an EDTA-K2 tube, centrifuged to separate plasma, and stored at -80°C. The drug plasma concentration was measured using a liquid chromatography-tandem mass spectrometry analysis system (LC-MS/MS), and pharmacokinetic parameters, such as AUC0-t, Cmax, Tmax and t1/2, were calculated based on the drug plasma concentration data using DAS 2.0 software.

[2] = Effect of continuous in-vivo administration on general condition and food intake of rats; settings: 500 mg/kg PO once a day for 14 days, within 24 hours after the last administration; for food intake compared with the blank group: SD rats
Excerpt: Each group had 10 rats, equally distributed by gender. The rats received drug administrations via oral gavage once a day for 14 consecutive days, following the administration regimen outlined in the table below. The blank group was given an equal volume of a vehicle. […] Table 4 Continuous administration regimen

human FXla = human FXla (Homo sapiens, UniProt P03951); experiment: Activity assay of coagulation factor FXla inhibitor (S-2366 substrate, OD405nm); assay type: biochemical; settings: 5 concentrations 200 nM to 0.32 nM, 0.8 nM (2X) human FXla working solution
Sequence of human FXla (P03951 388-625 limits assumed): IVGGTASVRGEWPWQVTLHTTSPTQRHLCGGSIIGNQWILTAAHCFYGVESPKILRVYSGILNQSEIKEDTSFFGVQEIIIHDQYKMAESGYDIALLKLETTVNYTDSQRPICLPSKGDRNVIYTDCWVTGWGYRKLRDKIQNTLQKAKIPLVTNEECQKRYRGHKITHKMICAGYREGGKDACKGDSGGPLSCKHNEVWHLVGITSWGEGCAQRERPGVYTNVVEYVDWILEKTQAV
Sequence of human FXla (P03951 19-387 partner limits assumed): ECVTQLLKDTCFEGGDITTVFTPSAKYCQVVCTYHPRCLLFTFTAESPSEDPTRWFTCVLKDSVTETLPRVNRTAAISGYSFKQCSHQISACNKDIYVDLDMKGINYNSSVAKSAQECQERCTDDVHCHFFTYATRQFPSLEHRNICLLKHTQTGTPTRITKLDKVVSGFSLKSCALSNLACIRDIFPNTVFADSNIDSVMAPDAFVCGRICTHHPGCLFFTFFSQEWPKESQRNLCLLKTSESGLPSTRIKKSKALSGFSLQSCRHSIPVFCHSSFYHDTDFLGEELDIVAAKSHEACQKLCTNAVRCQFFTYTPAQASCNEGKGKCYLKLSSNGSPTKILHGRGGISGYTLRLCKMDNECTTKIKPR
Excerpt: X: log value of compound concentration; Y: inhibition rate (%).

| Compound | APTT prolongation rate (%) (human plasma; 3 µM) | APTT prolongation rate (%) (human plasma; 10 µM) | EC150 (human plasma) | AUC(0-t) [1] [µg·h/mL] | Cmax [1] [ng/mL] | Tmax [1] [h] | half-life [1] [h] | Food intake (g, mean±SD) [2] [g] | food intake compared with the blank group [2] | IC50 (human FXla) [nM] | APTT prolongation rate (%) (human plasma; 1 µM) |
| --- | --- | --- | --- | --- | --- | --- | --- | --- | --- | --- | --- |
| CC[C@@H](C(=O)Nc1ccc(C(=O)O)c(Cl)c1)n1cc(OC)c(-c2cc(Cl)ccc2-n2cc(C(F)(F)F)nn2)cc1=O [Compound 2, (S)-2-chloro-4-(2-(4-(5-chloro-2-(4-(trifluoromethyl)-1H-1,2,3-triazol-1-yl)phenyl)-5-methoxy-2-oxopyridin-1(2H)-yl)butanamido)benzoic acid] | 88.9 | 124.8 | less than 1 µM | 85.9 | 6740 | 3.94 | 7.75 | 27.22 ± 1.33 | essentially the same food intake as the blank group | 0.91 | – |
| CC[C@@H](C(=O)Nc1ccc(C(N)=O)c(OC)c1)n1cc(OC)c(-c2cc(Cl)ccc2-n2cc(C(F)(F)F)nn2)cc1=O [Compound 5, (S)-4-(2-(4-(5-chloro-2-(4-(trifluoromethyl)-1H-1,2,3-triazol-1-yl)phenyl)-5-methoxy-2-oxopyridin-1(2H)-yl)butanamido)-2-methoxybenzamide] | 84.6 | 125.8 | less than 1 µM | – | – | – | – | – | – | 5.6 | – |
| [2H]C([2H])([2H])NC(=O)c1ccc(NC(=O)[C@H](CC)n2cc(OC)c(-c3cc(Cl)ccc3-n3cc(C(F)(F)F)nn3)cc2=O)cc1F [Compound 26, (S)-4-(2-(4-(5-chloro-2-(4-(trifluoromethyl)-1H-1,2,3-triazol-1-yl)phenyl)-5-(methoxy)-2-oxopyridin-1(2H)-yl)butanamido)-2-fluoro-N-(methyl-d3)benzamide] | 78.3 | 159.5 | less than 1 µM | 129 | 21000 | 2.7 | 3.33 | 26.49 ± 1.21 | essentially the same food intake as the blank group | 1.15 | – |
| CC[C@@H](C(=O)Nc1ccc(C(N)=O)cc1F)n1cc(OC)c(-c2cc(Cl)ccc2-n2cc(C(F)(F)F)nn2)cc1=O [Compound 13, (S)-4-(2-(4-(5-chloro-2-(4-(trifluoromethyl)-1H-1,2,3-triazol-1-yl)phenyl)-5-methoxy-2-oxopyridin-1(2H)-yl)butanamido)-3-fluorobenzamide] | 80.2 | 175.9 | less than 1 µM | – | – | – | – | – | – | 25.5 | – |
| [2H]C([2H])([2H])Oc1cn([C@@H](CC)C(=O)Nc2ccc(C(=O)NC)c(F)c2)c(=O)cc1-c1cc(Cl)ccc1-n1cc(C(F)(F)F)nn1 [Compound 25, (S)-4-(2-(4-(5-chloro-2-(4-(trifluoromethyl)-1H-1,2,3-triazol-1-yl)phenyl)-5-(methoxy-d3)-2-oxopyridin-1(2H)-yl)butanamido)-2-fluoro-N-methylbenzamide] | 76.7 | 158.5 | less than 1 µM | 159 | 26500 | 2.3 | 1.9 | 27.00 ± 1.42 | essentially the same food intake as the blank group | 1.87 | – |
| [2H]C([2H])([2H])NC(=O)c1ccc(NC(=O)[C@H](CC)n2cc(OC([2H])([2H])[2H])c(-c3cc(Cl)ccc3-n3cc(C(F)(F)F)nn3)cc2=O)cc1F [Compound 27, (S)-4-(2-(4-(5-chloro-2-(4-(trifluoromethyl)-1H-1,2,3-triazol-1-yl)phenyl)-5-(methoxy-d3)-2-oxopyridin-1(2H)-yl)butanamido)-2-fluoro-N-(methyl-d3)benzamide] | 79.7 | 142.5 | less than 1 µM | 291 | 27200 | 4.43 | 4.01 | 27.08 ± 1.19 | essentially the same food intake as the blank group | 2.98 | – |
| CC[C@@H](C(=O)Nc1ccc(C(N)=O)c(Cl)c1)n1cc(OC)c(-c2cc(Cl)ccc2-n2cc(C(F)(F)F)nn2)cc1=O [Compound 1, (S)-2-chloro-4-(2-(4-(5-chloro-2-(4-(trifluoromethyl)-1H-1,2,3-triazol-1-yl)phenyl)-5-methoxy-2-oxopyridin-1(2H)-yl)butanamido)benzamide] | 65.8 | 136.5 | less than 1 µM | – | – | – | – | – | – | 7.53 | – |
| CC[C@@H](C(=O)Nc1ccc(C(=O)NC)c(F)c1)n1cc(OC)c(-c2cc(Cl)ccc2-n2cc(C(F)(F)F)nn2)cc1=O [Compound 17, (S)-4-(2-(4-(5-chloro-2-(4-(trifluoromethyl)-1H-1,2,3-triazol-1-yl)phenyl)-5-methoxy-2-oxopyridin-1(2H)-yl)butanamido)-2-fluoro-N-methylbenzamide] | 82.6 | 145.3 | less than 1 µM | – | – | – | – | – | – | 1.65 | – |
| CC[C@@H](C(=O)Nc1ccc(C(=O)O)c(OC)c1)n1cc(OC)c(-c2cc(Cl)ccc2-n2cc(C(F)(F)F)nn2)cc1=O [Compound 6, (S)-4-(2-(4-(5-chloro-2-(4-(trifluoromethyl)-1H-1,2,3-triazol-1-yl)phenyl)-5-methoxy-2-oxopyridin-1(2H)-yl)butanamido)-2-methoxybenzoic acid] | 78.0 | 135.1 | less than 1 µM | 89.8 | 6440 | 4.1 | 7.08 | – | – | 0.96 | – |
| CC[C@@H](C(=O)Nc1ccc(C(=O)O)c(Cl)c1)n1cc(OC)c(-c2cc(Cl)ccc2-n2cc(Cl)nn2)cc1=O [Compound 9, (S)-2-chloro-4-(2-(4-(5-chloro-2-(4-chloro-1H-1,2,3-triazol-1-yl)phenyl)-5-methoxy-2-oxopyridin-1(2H)-yl)butanamido)benzoic acid] | 69.5 | 103.8 | – | – | – | – | – | – | – | 6.32 | 44.3 |
| [2H]C([2H])([2H])Oc1cn([C@@H](CC)C(=O)Nc2ccc(C(N)=O)c(Cl)c2)c(=O)cc1-c1cc(Cl)ccc1-n1cc(C(F)(F)F)nn1 [Compound 22, (S)-2-chloro-4-(2-(4-(5-chloro-2-(4-(trifluoromethyl)-1H-1,2,3-triazol-1-yl)phenyl)-5-(methoxy-d3)-2-oxopyridin-1(2H)-yl)butanamido)benzamide] | 62.0 | 105.9 | – | – | – | – | – | – | – | 4.23 | 35.6 |
